# Test results published in patent US20130295672A1, “STEM CELL CULTURE MEDIA AND METHODS” (CONSEJO SUPERIOR DE INVESTIGACIONES CIENTÍFICAS, priority 2010, published 2013).
# B1: IFN-γ: cytokine from Peprotech; inducer of BAFF (protein, UniProt P01579 24-161, looked up)
# Interferon gamma: QDPYVKEAENLKKYFNAGHSDVADNGTLFLGILKNWKEESDRKIMQSQIVSFYFKLFKNFKDDQSIQKSVETIKEDMNVKFFNSNKKKRDDFEKLTNYSVTDLNVQRKAIHELIQVMAELSPAAKTGKRKRSQMLFRG
# Legend:
# Format in all cases: cell-based, human
# [1] = MTS assay (CellTiter AQueous One Solution Cell Proliferation Assay), hASC viability/growth; conditions: human, hASC cells; no APRIL/BAFF; control 100%; read-out: basal hASC growth in MTS assay with inhibitor added to medium
# Experimental: (§1) FIG. 2. APRIL and BAFF enhance hASC viability and proliferation. (A): Cell viability was assessed by the CellTiter AQueous One Solution Cell Proliferation Assay (Promega, Madison, Wis.) according to manufacturer's protocols. hASC (3.5×10^3 cells/well) were cultured for 6 days in 96-well plates with 100 ng/ml APRIL or BAFF. Absorbance (OD 490 nm) was measured in an ELISA plate reader (n=at least three experiments). Values were normalized to the absorbance of cells cultured without stimuli (100%). (B): Histograms show cell proliferation measured by a […] BrdU incorporation assay. hASC were cultured in p60 plates with 100 ng/ml APRIL or BAFF; BrdU (20 μM) was added for the last three days. At day 6, BrdU incorporation was detected by flow cytometry using an anti-BrdU antibody. Numerals indicate percentage of cells positive for BrdU and, therefore, actively proliferating. Cell viability was assessed by the CellTiter AQueous One Solution Cell Proliferation Assay (Promega, Madison, Wis.) according to manufacturer's protocols. hASC (3.5×10^3 cells/well) were cultured for 6 days in 96-well plates with 100 ng/ml APRIL or BAFF. Absorbance (OD 490 nm) was measured in an ELISA plate reader (n=at least three experiments). Values were normalized to the absorbance of cells cultured without stimuli (100%). Additionally, cell proliferation was measured by a colorimetric BrdU incorporation assay. hASC were cultured in p60 plates with 100 ng/ml APRIL or BAFF; BrdU (20 μM) was added for the last three days. At day 6, BrdU incorporation was detected by flow cytometry using an anti-BrdU antibody. Three independent MTS and BrdU assays were performed and triplicates included for each condition.
# hASC [2] = assay: as above; conditions: for hASC growth in MTS assay, considering basal growth 100%: 100 ng/ml, 6 days in culture, normalized to cells without stimuli (100%); for promotion of cell growth when ERK was inhibited: with ERK inhibitor U0126, effect kept when PI3K was inhibited
# Experimental: as §1
# PBMC proliferation = assay: Immunosuppression assay: proliferation of activated CFSE-labeled PBMC with allogeneic hASC; conditions: 100 ng/ml, day 5
# Experimental: FIG. 4. Modulation of APRIL and BAFF in hASC. Immunosuppressive effect (A): hASC cells were cultured with 100 ng/ml APRIL (light grey bar), BAFF (dark grey bar) or no stimulus (white bar) and then stimulated with 1 μg/ml LPS or poly I:C. […] Data were acquired using a FACScalibur cytometer and analyzed using FCAP array software (BD Bioscience). (B): Immunosupression assay: Allogeneic hASCs were cultured with activated CFSE labelled PBLs at a ratio of 1:25 (hASC: PBLs) in the presence or absence of BAFF or APRIL (100 ng/ml). After 5 days cells were harvested, analyzed by flow cytometry in a FACScalibur cytometer (BD Bioscience) and acquired for CFSE. […]
# For CFSE labeling, freshly purified PBMC (10-20×106) were washed extensively to remove FBS, resuspended in 200 μl of a 10 μM CFSE solution (Sigma), and incubated with constant shaking (37° C., 10 min) Cells were washed and cultured overnight, and one aliquot was used to set up and control FL-1 voltage for CFSE in the cytometer. […] At day 5, PBMC were harvested and cell proliferation was determined according to loss of CFSE in the FL-1 channel. Data were analyzed using Cellquest-Pro software on gated lymphocytes (based on forward scatter/side scatter properties). The percentage of proliferating lymphocytes was calculated by gating in the region (M1) of the FL-1 channel corresponding to the last 48 h of culture ([…]). […]
# hASC [3] = assay: BrdU incorporation assay by flow cytometry, hASC proliferation; conditions: 100 ng/ml, day 6, BrdU for the last three days; control 13%
# Experimental: as §1, with “Additionally, cell proliferation was measured by a colorimetric BrdU incorporation assay. hASC were cultured in p60 plates with 100 ng/ml APRIL or BAFF; BrdU (20 μM) was added for the last three days.” left out, “Three independent MTS and BrdU assays were performed and triplicates included for each condition.” left out
# Akt = assay: Western blot phosphorylation kinetics in stimulated hASC: Akt; conditions: 100 ng/ml, 10-120 min
# Experimental: (§2) FIG. 3. APRIL and BAFF-mediated signaling in hASC. hASC were stimulated with 100 ng/ml APRIL or BAFF (10, 30, 60, 120 min, 37° C.), placed on ice, washed with ice-cold PBS, and lysed with cell lysis buffer (Roche, Indianapolis, Ind.). Extracts were quantified by absorbance, resolved in SDS-PAGE and analyzed by immunoblot. Antibodies used were anti-phospho-Akt (Ser473), -Akt, -phospho-ERK1/2 (Thr202/Tyr204), and -ERK1/2) (BD Bioscience); secondary antibodies were horseradish peroxidase-conjugated bovine anti-rabbit and goat anti-mouse IgG. (B): Histograms show cell proliferation measured by BrdU incorporation as in (FIG. 2B), with addition of the ERK inhibitor U0126 (2.5 μM; Sigma) or the PI3K inhibitor LY294002 (10 μM; Calbiochem) to the culture on days 0 and 3. […]
# (§3) hASC were stimulated with 100 ng/ml APRIL or BAFF (10, 30, 60, 120 min, 37° C.), placed on ice, washed with ice-cold PBS, and lysed with cell lysis buffer (Roche, Indianapolis, Ind.). Extracts were quantified by absorbance, resolved in SDS-PAGE and analyzed by immunoblot. […]
# (§4) Plated hASC (1.5×10^4 cells/cm2) were stimulated with APRIL or BAFF (100 ng/ml) and lysed with lysis buffer (Roche) with protease and phosphatase inhibitors. Proteins in extracts were quantified by absorbance with the BCA protein assay kit (Pierce), and equal amounts of protein homogenate resolved in SDS-PAGE, and transferred to PVDF membranes (Millipore). […]
# [4] = test system: HLA-I, HLA-II, CD80 and CD86 expression; assay: Flow cytometry of hASC activation molecules; conditions: APRIL or BAFF activation
# Experimental: hASCs were harvested, stained with appropriate fluorochrome-coupled antibodies and measured by flow cytometry (BD FACS Calibur). Data were analyzed using the FlowJo program (TreeStar, Ashland, Oreg.).
# [5] = test system: indoleamine 2,3-dioxygenase (IDO); assay: IDO induction in hASC; conditions: BAFF/APRIL activation of hASC
# ERK1/2 = assay: Western blot phosphorylation kinetics in stimulated hASC: ERK1/2; conditions: 100 ng/ml, 10-120 min
# Experimental: as §2, §3, §4
# JNK, IκBα or p38 = assay: Western blot phosphorylation kinetics in stimulated hASC: JNK, IκBα, p38
# [6] = test system: APRIL and BAFF secretion in hASC; assay: ELISA of APRIL and BAFF concentrations in hASC medium
# Experimental: FIG. 4. Modulation of APRIL and BAFF in hASC. Immunosuppressive effect (A): hASC cells were cultured with 100 ng/ml APRIL (light grey bar), BAFF (dark grey bar) or no stimulus (white bar) and then stimulated with 1 μg/ml LPS or poly I:C. […] Data were acquired using a FACScalibur cytometer and analyzed using FCAP array software (BD Bioscience). (B): Immunosupression assay: Allogeneic hASCs were cultured with activated CFSE labelled PBLs at a ratio of 1:25 (hASC: PBLs) in the presence or absence of BAFF or APRIL (100 ng/ml). After 5 days cells were harvested, analyzed by flow cytometry in a FACScalibur cytometer (BD Bioscience) and acquired for CFSE. Percentage of proliferating cells (relative to PBLs alone) in the last two generations is shown. Mean and standard deviation of experiments with 6 different buffy coats are represented. Buffy coats were provided by the National Transfusion Centre of the Comunidad Autónoma of Madrid. PBLs were isolated by density centrifugation gradient using Ficollplaque Plus (GE Healthcare Biosciences AB, Uppsala) (C): hASC cells were cultured with IFNγ. Supernatants were collected five days later. […] IL-6 and IL-8 concentration in the medium after 48 h, was measured by the Cytometric Bead Array (CBA) immunoassay (BD Bioscience) following manufacturer instructions. Data were acquired using a FACScalibur cytometer and analyzed using FCAP array software (BD Bioscience). […] Supernatants were collected five days later. APRIL and BAFF concentrations in the medium were determined by ELISA (R&D Systems for BAFF, Bender MedSystem for APRIL).
# [7] = 10, 30, 100 ng/ml, supernatants after five days
molecule,measurement,setting,value
"O=c1cc(N2CCOCC2)oc2c(-c3ccccc3)cccc12 [LY294002, reference compound]",viability at 6 days,[1],60.3%
"N#CC(=C(/N)Sc1ccccc1N)/C(C#N)=C(\N)Sc1ccccc1N [U0126, reference compound]","decrease in basal hASC growth (MTS assay), result in words","hASC [2]; inhibitor added to medium, no APRIL/BAFF",but not ERK inhibitor
APRIL: recombinant protein from R&D Systems; TNF ligand binding BCMA and TACI,"hASC growth in MTS assay, considering basal growth 100%",hASC [2],114%
same,promotion of cell growth when ERK was inhibited,hASC [2],did not promote cell growth
same,effect on ability of hASC to suppress PBMC proliferation,PBMC proliferation,did not alter
same,percentage of BrdU-positive cells,hASC [3],27.5%
same,phosphorylation of Akt,Akt,induced rapid phosphorylation
same,"effect on hASC expression of HLA-I, HLA-II, CD80 and CD86",[4],do not affect
same,induction of IDO,[5],did not induce
same,phosphorylation of ERK1/2,ERK1/2,induced rapid phosphorylation
same,"phosphorylation of JNK, IκBα or p38","JNK, IκBα or p38",no clear effect
"BAFF: recombinant protein from R&D Systems; TNF ligand binding BCMA, TACI and BAFF-R","hASC growth in MTS assay, considering basal growth 100%",hASC [2],140%
same,promotion of cell growth when ERK was inhibited,hASC [2],did not promote cell growth
same,effect on ability of hASC to suppress PBMC proliferation,PBMC proliferation,did not alter
same,percentage of BrdU-positive cells,hASC [3],29.4%
same,phosphorylation of Akt,Akt,induced rapid phosphorylation
same,"effect on hASC expression of HLA-I, HLA-II, CD80 and CD86",[4],do not affect
same,induction of IDO,[5],did not induce
same,phosphorylation of ERK1/2,ERK1/2,induced rapid phosphorylation
same,"phosphorylation of JNK, IκBα or p38","JNK, IκBα or p38",no clear effect
CXCL12: cytokine from Peprotech; enhances APRIL secretion,APRIL secretion by hASC,[6]; [7],preferentially enhances APRIL
poly I:C [reference compound],induction of APRIL or BAFF secretion by TLR ligand,[6]; hASC activated with LPS or poly I:C,Neither ligand induced
B1,BAFF secretion by hASC,[6]; [7],promotes BAFF secretion
